Test results: article PMC8228174, “In Vitro Characterization of Guanylyl Cyclase BdPepR2 from Brachypodium distachyon Identified through a Motif-Based Approach” (International Journal of Molecular Sciences, 2021)

B1: BdPepR2 (Brachypodium distachyon) (protein)
chain: MPGRLSAKRVSLRSLDSTEELPEDMTYEDILRATDNWSEKYVIGKGRHGTVYRTDCKLGKQWAVKTVDLSQCKFPIEMKILNTVKHRNIVRMAGYYIRGNVGLILYEYMPEGTLFELLHERKPQVALGWMARHQIALGVAQGLSYLHQDCVPMIVHRDVKSSNILMDVELVPKLTDFGMGKIVGDEDSDATVSVIVGTLGYIAPEHGYSTRLSEKSDVYSYGVVLLELLCRKMPVDSAFGDGVDIVTWMRSNLKQADHCSVMSCLDEEIVYWPEDEQAKALHLLDLAISCTEVACQLRPSMREVVNVLVRMDK
notes: full length 1146 aa; pGEX-6P-2, E. coli BL21(DE3)pLysS; GST tag cut off with PreScission protease

Columns and labels:
BdPepR2 [1] = biological target: T1, BdPepR2 (Brachypodium distachyon, UniProt A0A2K2CYK2); assay: Kinase-Glo plus luminescent kinase assay; type: biochemical; details: 1 µM cGMP suppresses kinase activity; 100 μM ATP, Histone Type III-S, 5 mM MgCl2 and 5 mM MnCl2, 1 mM DTT, 25 mM Tris/HCl pH 7.5, 30 °C; extent only in figure
T1 construct: gene LOC100834510; full length 1146 aa; pGEX-6P-2, E. coli BL21(DE3)pLysS; GST tag cut off with PreScission protease
Target sequence in this assay (A0A2K2CYK2 entry or part of it M1083R): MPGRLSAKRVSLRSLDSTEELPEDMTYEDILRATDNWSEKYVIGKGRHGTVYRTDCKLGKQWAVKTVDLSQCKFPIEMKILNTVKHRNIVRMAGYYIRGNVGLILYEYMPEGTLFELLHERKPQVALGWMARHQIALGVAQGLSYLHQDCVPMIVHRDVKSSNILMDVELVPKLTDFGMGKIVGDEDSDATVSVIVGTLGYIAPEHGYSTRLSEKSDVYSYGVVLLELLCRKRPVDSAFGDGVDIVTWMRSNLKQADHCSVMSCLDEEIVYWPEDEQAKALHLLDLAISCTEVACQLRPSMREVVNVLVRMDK

BdPepR2 [2] = biological target: T1, BdPepR2; assay: Kinase-Glo plus luminescent kinase assay; type: biochemical; details: 1 µM cGMP suppresses kinase activity; 100 μM ATP, Histone Type III-S, 5 mM MgCl2 and 5 mM MnCl2, 1 mM DTT, 25 mM Tris/HCl pH 7.5, 30 °C; extent only in figure; remark: listed apart in the source
BdPepR2 [3] = biological target: T2, BdPepR2 (Brachypodium distachyon, UniProt A0A2K2CYK2, M1083A); assay: Kinase-Glo plus luminescent kinase assay; type: biochemical; details: 1 µM cGMP suppresses kinase activity; 100 μM ATP, Histone Type III-S, 5 mM MgCl2 and 5 mM MnCl2, 1 mM DTT, 25 mM Tris/HCl pH 7.5, 30 °C; extent only in figure
T2 construct: gene LOC100834510; full length 1146 aa; pGEX-6P-2, E. coli BL21(DE3)pLysS; GST tag cut off with PreScission protease

[4] = substrate: Nc1nc2c(ncn2[C@@H]2O[C@H](COP(=O)(O)OP(=O)(O)OP(=O)(O)O)[C@@H](O)[C@H]2O)c(=O)[nH]1; assay: guanylyl cyclase assay, cGMP by LC-MS/MS; type: biochemical, Brachypodium distachyon; details: 5 mM MnCl2, 50 mM Tris/HCl pH 7.5, 30 °C, 15 min, GTP 0.5-2 mM, GC centre

T2 sequence (A0A2K2CYK2 entry or part of it M1083A): as the sequence (A0A2K2CYK2 entry or part of it M1083R) above, with R233A counted along it

Row | Molecule | Kinase-Glo plus luminescent kinase assay (BdPepR2 [1]) | Kinase-Glo plus luminescent kinase assay (BdPepR2 [2]) | Kinase-Glo plus luminescent kinase assay (BdPepR2 [3]) | Km [4] [µM]
1 | Nc1nc2c(ncn2[C@@H]2O[C@@H]3COP(=O)(O)O[C@H]3[C@H]2O)c(=O)[nH]1 [cGMP] | kinase activity of BdPepR2, BdPepR2M1066A, and BdPepR2M1066R is suppressed by GTP and cGMP | only the product of GC activity, cGMP, statistically significantly suppress kinase activity of BdPepR2 | kinase activity of BdPepR2, BdPepR2M1066A, and BdPepR2M1066R is suppressed by GTP and cGMP | –
2 | B1 | – | – | – | 1189
